The target in series [1] is PICK1 (Homo sapiens, UniProt Q9NRD5). Kind of series: PICK1 competition (displacement) assay with tracer BIO424.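 For all read-outs here: in vitro displacement assay with baculovirus-expressed, truncated dimeric PICK1 missing its final 59 residues.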 Particulars: for fold more potent than the unsubstituted quinoline: relative to 1u.
Method: (§1) Fluorescence polarization (FP) and competition binding assays were used to determine PDZ binding affinities and selectivity of compounds as described in Alfonso et al.[20]. Briefly, a fixed concentration (5 nM) of Fluorescein isothiocyanate-labeled peptides comprising the C-terminal amino acids of GluA2 (875–883) and N-methyl-D-aspartate receptor subunit 2B (1474–1482) was used. Binding FP assays were carried out using increasing concentrations of recombinant full-length PICK1, postsynaptic density 95 (PSD95) PDZ 1–2, or Shank3 PDZ, and normalized by subtracting the tracer-only background.
Two recombinant PICK1 constructs were used in this study. […] A truncated, dimeric form of PICK1 lacking the last 59 residues was expressed in baculovirus and purified to homogeneity for use in the in vitro displacement assay. In general, both proteins were purified by Nickel chromatograpy followed by size exclusion chromatography.
A short description of series [2]: PK properties in rats. It counts as in vivo. The protocol: We next investigated the PK properties of compound 1z in rats to explore if it represented an appropriate in vivo tool compound. […] Several other compounds within this series were tested for brain penetration and were likewise unable to cross the blood brain barrier.
Series [3] has as its system surface GluA2 in cultured hippocampal neurons. Kind of series: Surface GluA2 immunostaining in cultured hippocampal neurons. Type of series: cell-based, mouse. As for the experimental part:
Experiments were conducted in accordance with and received approval from the Institutional Animal Care and Use Committees at Biogen Inc. The experiments were carried out in accordance with guidelines laid down by the NIH regarding the care and use of animals for experimental procedures. Primary hippocampal cultures were prepared from embryonic day 18 rodent brains as described previously. Cells were plated on coverslips coated with poly-D-lysine (30 µg/mL) and laminin (2 µg/mL) at a density of 70, 000 cells per well in 12-well plates. […] Embryonic neuronal cultures were prepared from a minimum of three independent pregnant mice on separate days in all of the studies described, and at least 13 neurons were analyzed for each experimental group. […]
Confocal images of immunostained neurons were obtained using a confocal microscope objective (LSM 710, Zeiss) with sequential acquisition settings at a resolution of 1024 × 1024 pixels. […] All analysis and quantifications were carried out using MetaMorph image analysis software (Universal Imaging Corporation). Dendrites from experimental groups were randomly selected and carefully traced, and the average intensity of fluorescence staining was determined for the traced regions. Intensity measurements are expressed in arbitrary units of fluorescence per square area. Acquisition and quantification of images was blinded. […]

Series [4] deals with AMPA receptor-dependent calcium influx in hippocampal neurons. Kind of series: Calcium mobilization assay (FLIPR), Aβ42-treated neurons. Type of series: cell-based, mouse. Particulars: neurons treated with Aβ42 for 24 hours, 40 μM s-AMPA stimulation. In general terms: A change in cytosolic calcium serves as a functional read-out for many receptors and channels.
Method: Synthetic Aβ42 hexafluoroisopropanol peptide was prepared to the stock concentration of 200 μM by adding 10 μL dimethylsulfoxide to 100 μg of Aβ42 hexafluoroisopropanol pellet and incubating for 30 min at room temperature with occasional mixing. […] The solution was kept at room temperature for 2 h and then used for experiments.
Mouse hippocampal neurons from wild type E16–18 animals were isolated and cultured for 13 days in vitro in Neurobasal media with B27 Supplement, Glutamax, and penicillin/streptomycin (Invitrogen). Neuron cultures were then treated with Aβ in the absence or presence of PICK1 inhibitorsfor 24 hours. Calcium influx was measured using the FLIPR Calcium 4 Assay (Molecular Devices). The cells were loaded with dye for 1 hour at 37 °C and then stimulated with 40 μM s-AMPA (Sigma). Fluorescent recordings were taken using the FLIPR Tetra (Molecular Devices). Baseline measurements before AMPA stimulation were recorded and fluorescent intensity measurements were taken for roughly 3 minutes during and after stimulation. Calcium influx was calculated as the area under the curve and plotted using PRISM GraphPad software.
For series [5], the target named is T1, PSD95 PDZ 1-2 (Homo sapiens, UniProt P78352).
T1 construct: domains 1–2 in tandem; aminoacids 61–249; 8XHis-TEV; made in house; host or cells: E. coli
Conditions: cited from earlier work.

Series [6] concerns GRIP. Particulars: cited from earlier work.
Series [7] deals with T2, Shank3 PDZ (Homo sapiens, UniProt Q9BYB0).
T2 construct: Human Shank3 PDZ domain (residues 663–757); made in house; host or cells: E. coli
T2 sequence (Q9BYB0 646-740 limits assumed): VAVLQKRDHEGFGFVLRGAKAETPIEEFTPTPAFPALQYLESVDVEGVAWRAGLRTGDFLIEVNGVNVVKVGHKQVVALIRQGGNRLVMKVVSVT
Kind of series: Fluorescence polarization selectivity assay, FITC-labeled GKAP peptide. It counts as binding. Particulars: Supplemental Fig. 3D. On the technique in general: In fluorescence polarisation assays a small probe gives low polarisation when free and higher when bound to something large.
Method: as §1

Series [8] deals with GRIP. Kind of series: PDZ selectivity counter-screen against GRIP. Type of series: binding. Particulars: data not shown. The text has this:
Having addressed the potency issue for this tool, we then looked into how selective this compound series was for PICK1 over other closely related PDZ domains. Since the ligand GluA2 recognizes both PICK1 and GRIP we were unsure of whether we could get a selective compound. GRIP (6 PDZ domain-containing protein) is the most closely related PDZ domain to PICK1. PSD95 ([…]) and Shank (a single PDZ domain scaffolding molecule), are also important to counter-screen as they are also located in neurons and could be considered a liability if they were inhibited (Supplemental Fig. 3). […] The selectivity observed for compound 1o was also observed for compound 1z[20].
(In general: A counterscreen serves to expose hits that act by an unwanted route or on another target.)

[9] abbreviates: rat, in vivo, 5 mg/kg, suspension (CMC/Tween).

Values joined by “and” are separate entries in the source; they are usually repeats but may differ in a detail not shown here. Equal values may be shown once. Read-outs that look alike come from different tables or passages of the source.

Chain of PICK1 (Q9NRD5 1-356): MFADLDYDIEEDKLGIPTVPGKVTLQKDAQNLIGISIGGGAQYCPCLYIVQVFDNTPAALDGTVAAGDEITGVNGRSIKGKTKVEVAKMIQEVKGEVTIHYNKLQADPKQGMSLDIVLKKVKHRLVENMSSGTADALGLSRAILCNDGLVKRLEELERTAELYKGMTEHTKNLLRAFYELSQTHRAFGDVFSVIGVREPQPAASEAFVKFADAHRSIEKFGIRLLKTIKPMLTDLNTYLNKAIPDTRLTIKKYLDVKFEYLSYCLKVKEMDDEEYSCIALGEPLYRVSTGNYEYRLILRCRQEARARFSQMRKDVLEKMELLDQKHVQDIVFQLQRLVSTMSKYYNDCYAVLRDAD
T1 sequence (P78352 61-249): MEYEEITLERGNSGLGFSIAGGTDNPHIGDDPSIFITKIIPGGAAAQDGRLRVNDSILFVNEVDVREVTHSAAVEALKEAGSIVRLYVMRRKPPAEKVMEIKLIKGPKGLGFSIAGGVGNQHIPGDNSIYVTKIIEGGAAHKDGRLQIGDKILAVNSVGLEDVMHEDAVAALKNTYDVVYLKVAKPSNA

The IC50 is the concentration that gives 50% inhibition. Higher therefore signals lower potency. Consider `CC(C)(C)OC(=O)N1CCC[C@H]1C(=O)N1CCC(C(=O)N[C@H](C(=O)O)C2CCCC2)(c2ccc(Br)cc2)CC1` [1l], for which the IC50 in series [1] (IC50, BIO424 as tracer) was 815 nM.

`Cc1cc(N2CCC(C(=O)N[C@@H](CC3CC3)C(=O)O)(c3ccc(C(F)(F)F)cc3)CC2)c2ncccc2c1` [1v] came in with an IC50 in series [1] (IC50, BIO424 as tracer) of 348 nM. Besides, the “fold more potent than the unsubstituted quinoline” value in series [1] is listed as 10 fold.

Take `CC(C)[C@H](NC(=O)C1(N2CCOCC2)CCN(C(=O)[C@@H]2CCCN2C(=O)OC(C)(C)C)CC1)C(=O)O` [1c]: the IC50 in series [1] (IC50, BIO424 as tracer) was approximately 175000 nM. On the same count and under the same terms, the figure for `C[C@H](NC(=O)C1(c2ccc(Br)cc2)CCN(C(=O)[C@@H]2CCCN2C(=O)OC(C)(C)C)CC1)C(=O)O` [1h] is 12100 nM and 12000 nM; for `CCc1cc(N2CCC(C(=O)N[C@@H](CC3CC3)C(=O)O)(c3ccc(C(F)(F)F)cc3)CC2)c2ncccc2c1` [1w] it is 269 nM.

Broadly, the AUC is concentration integrated over time. A low value points to less exposure. As usually defined, the Cmax is the highest concentration seen after dosing. Consider `O=C(O)[C@H](CC1CC1)NC(=O)C1(c2ccc(C(F)(F)F)cc2)CCN(c2cc(Cl)cc3cccnc23)CC1` [1z], for which the “exposure in the brain (brain penetration)” value in series [2] was “no exposure in the brain”. In series [2] (setting [9]), the AUC is 2920 ng·h/mL and the Cmax was determined as 1360 ng/mL. In addition, the “surface GluA2 levels relative to untreated neurons” value in series [3] (3 μM, 24 hours, cultured hippocampal neurons) was “increased”. Besides, in series [3] (inhibitor treatment, data not shown), the “total amount of GluA2 in the cytoplasm and on the cell surface” value is “unchanged”. The same compound displayed an IC50 in series [1] (IC50 (potency)) of 69 nM. In series [1], the “fold more potent than the unsubstituted quinoline” value is given as 67 fold. Besides, the “effect on Aβ42-induced increase in intracellular calcium concentration” value in series [4] is reported as “attenuated”. Further, the “selectivity for PICK1 over PSD95” value in series [5] is “selectivity”. The “selectivity for PICK1 over GRIP” value in series [6] is on record as “selectivity”. As for `COc1cc(N2CCC(C(=O)N[C@@H](CC3CC3)C(=O)O)(c3ccc(C(F)(F)F)cc3)CC2)c2ncccc2c1` [1ac], in series [1] (IC50, BIO424 as tracer), the IC50 turned out to be 563 nM.

Take `O=C(O)[C@H](CC1CC1)NC(=O)C1(c2ccc(Br)cc2)CCN(Cc2ccccc2C(F)(F)F)CC1` [1o]: the “selectivity for PICK1 over Shank PDZ domain” value in series [7] was “selectivity”. Besides, the “selectivity for PICK1 over GRIP” value in series [8] is listed as “selectivity”. Besides, the IC50 in series [1] (IC50, BIO424 as tracer) stood at 573 nM.

As for `O=C(O)[C@H](CC1CC1)NC(=O)C1(c2ccc(C(F)(F)F)cc2)CCN(c2cc(Br)cc3cccnc23)CC1` [1aa], the IC50 in series [1] (IC50, BIO424 as tracer) is 75 nM. The same measure, in the same setting: the value for `O=C(O)[C@H](CC1CC1)NC(=O)C1(c2ccc(C(F)(F)F)cc2)CCN(c2cccc3cccnc23)CC1` [1u] was 4600 nM; that for `O=C(O)[C@H](CC1CC1)NC(=O)C1(c2ccc(C(F)(F)F)cc2)CCN(c2cc(OC(F)(F)F)cc3cccnc23)CC1` [1ad] was 2300 nM; that for `CC(C)[C@H](NC(=O)C1(c2ccc(Br)cc2)CCN(C(=O)[C@@H]2CCCN2C(=O)OC(C)(C)C)CC1)C(=O)O` [1e] was 4290 nM. With `O=C(O)[C@H](CC1CC1)NC(=O)C1(c2ccc(C(F)(F)F)cc2)CCN(c2cccc3ccccc23)CC1` [1t], in series [1] (IC50, BIO424 as tracer), the IC50 was determined as 8470 nM.

In the case of `CC(C)(C)OC(=O)N1CCC[C@H]1C(=O)N1CCC(C(=O)NC(C)(C)C(=O)O)(c2ccc(Br)cc2)CC1` [1i], in series [1] (IC50, BIO424 as tracer), the IC50 is more than 175000 nM. On the same count and under the same terms, the figure for `O=C(O)[C@H](CC1CC1)NC(=O)C1(c2ccc(C(F)(F)F)cc2)CCN(c2cc(C(F)(F)F)cc3cccnc23)CC1` [1ab] is 104 nM; for `CC(C)[C@H](NC(=O)C1(Cc2ccccc2)CCN(C(=O)[C@@H]2CCCN2C(=O)OC(C)(C)C)CC1)C(=O)O` [1d] it is 20600 nM. Still for that read-out and setting: the value for `CC(C)(C)OC(=O)N1CCC[C@H]1C(=O)N1CCC(C(=O)N[C@@H](Cc2c[nH]cn2)C(=O)O)(c2ccc(Br)cc2)CC1` [1k] was more than 175000 nM; that for `CC(C)c1cc(N2CCC(C(=O)N[C@@H](CC3CC3)C(=O)O)(c3ccc(C(F)(F)F)cc3)CC2)c2ncccc2c1` [1x] was 508 nM. Compound `O=C(O)[C@H](CC1CC1)NC(=O)C1(c2ccc(C(F)(F)F)cc2)CCN(c2cc(F)cc3cccnc23)CC1` [1y] came in with an IC50 in series [1] (IC50, BIO424 as tracer) of 626 nM. Regarding `CC(C)[C@H](NC(=O)C1(c2ccccc2)CCN(C(=O)[C@@H]2CCCN2C(=O)OC(C)(C)C)CC1)C(=O)O` [1a], the IC50 in series [1] (IC50, BIO424 as tracer) was 19000 nM and 18900 nM. On the same count and under the same terms, the value for `O=C(O)[C@H](CC1CC1)NC(=O)C1(c2ccc(Br)cc2)CCN(Cc2cccc(C(F)(F)F)c2)CC1` [1p] was 2560 nM. Turning to `CC(C)(C)OC(=O)N1CCC[C@H]1C(=O)N1CCC(C(=O)N[C@@H](CC2CC2)C(=O)O)(c2ccc(Br)cc2)CC1` [1m], the IC50 in series [1] (IC50, BIO424 as tracer) was determined as 718 nM. Same read-out and setting: the figure for `O=C(O)[C@H](CC1CC1)NC(=O)C1(c2ccc(Br)cc2)CCN(Cc2ccc(C(F)(F)F)cc2)CC1` [1q] is 5930 nM; for `CC(C)[C@H](NC(=O)C1(c2ccc(C(F)(F)F)cc2)CCN(C(=O)[C@@H]2CCCN2C(=O)OC(C)(C)C)CC1)C(=O)O` [1f] it is 1560 nM and 1600 nM; for `CC(C)[C@H](NC(=O)C1(C2CCCCC2)CCN(C(=O)[C@@H]2CCCN2C(=O)OC(C)(C)C)CC1)C(=O)O` [1b] it is 17400 nM. In turn, `CC(C)(C)OC(=O)N1CCC[C@H]1C(=O)N1CCC(C(=O)N[C@@H](CC2CC2)C(=O)O)(c2ccc(C(F)(F)F)cc2)CC1` [1n] gave an IC50 in series [1] (IC50 (potency)) of 130 nM. `O=C(O)[C@H](CC1CC1)NC(=O)C1(c2ccc(C(F)(F)F)cc2)CCN(c2ccccc2)CC1` [1s] showed an IC50 in series [1] (IC50, BIO424 as tracer) of 2040 nM.

`CC(C)(C)OC(=O)N1CCC[C@H]1C(=O)N1CCC(C(=O)NCC(=O)O)(c2ccc(Br)cc2)CC1` [1g] displayed an IC50 in series [1] (IC50, BIO424 as tracer) of more than 175000 nM. Same read-out and setting: the value for `CC(C)(C)OC(=O)N1CCC[C@H]1C(=O)N1CCC(C(=O)N[C@@H](Cc2c[nH]c3ccccc23)C(=O)O)(c2ccc(Br)cc2)CC1` [1j] was more than 175000 nM.
